From ChEMBL document CHEMBL1201862, “PubChem BioAssay data set” (2004)
Calls of active or inactive are those of the source.

Columns and labels:
[1] = biological target: DNA dC->dU-editing enzyme APOBEC-3G (Homo sapiens, UniProt Q9HC16); format: functional;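 further: Dose-response counterscreen measuring inhibition of APOBEC3G DNA deaminase activity, run while confirming APOBEC3A inhibitors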
[2] = biological target: DNA dC->dU-editing enzyme APOBEC-3A (Homo sapiens, UniProt P31941); test: Dose Response confirmation of small molecule APOBEC3A DNA Deaminase Inhibitors via a fluorescence-based single-stranded DNA deaminase assay. [Related pubchem assays (depositor defined):AID493011, AID493024]; format: functional
INS1 = test: INS-1E survival protection against cytokine death – cell-based, luminescence, retest, dose response (AID 449756); format: functional; conditions: Rattus norvegicus;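 further: cell death triggered by IL-1 beta plus TNF-alpha plus IFN-gamma mixture; protective hits raise ATP signal compared with cytokine alone wells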
Coagulation factor XII = biological target: T1, Coagulation factor XII (Homo sapiens, UniProt P00748); format: functional;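 further: activated factor XIIa alpha cleaving a fluorogenic AMC peptide substrate; inhibitor potency from loss of enzyme activity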
T1 sequence (P00748 whole entry): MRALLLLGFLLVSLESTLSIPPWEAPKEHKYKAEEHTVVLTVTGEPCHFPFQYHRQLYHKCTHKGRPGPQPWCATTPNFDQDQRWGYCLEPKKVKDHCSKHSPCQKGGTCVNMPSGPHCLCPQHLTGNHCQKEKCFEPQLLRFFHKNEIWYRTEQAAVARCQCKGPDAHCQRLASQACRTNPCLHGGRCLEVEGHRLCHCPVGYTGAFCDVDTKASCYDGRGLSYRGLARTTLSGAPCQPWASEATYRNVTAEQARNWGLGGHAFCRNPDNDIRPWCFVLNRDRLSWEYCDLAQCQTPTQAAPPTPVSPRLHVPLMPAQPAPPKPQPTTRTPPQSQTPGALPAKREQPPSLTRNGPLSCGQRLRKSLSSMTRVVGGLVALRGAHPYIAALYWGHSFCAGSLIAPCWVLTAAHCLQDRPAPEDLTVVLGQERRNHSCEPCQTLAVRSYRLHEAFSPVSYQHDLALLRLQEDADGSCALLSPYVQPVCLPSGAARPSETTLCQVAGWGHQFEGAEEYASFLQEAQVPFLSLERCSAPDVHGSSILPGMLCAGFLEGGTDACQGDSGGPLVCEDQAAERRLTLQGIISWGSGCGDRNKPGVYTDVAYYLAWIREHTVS

[3] = non-specific 3'UTR reporter inhibition in Clone20-Shn3RL – cell-based, Renilla luciferase, cherry-picked, counter-screen for Shn3 inhibitor project, dose response (AID 624133); format: functional
[4] = loss of viability in HepG2 cells – cell-based, CellTiter-Glo, cherry-picked, cytotoxicity control for Shn3 inhibitor project, dose response (AID 624134); format: functional
[5] = reduction of Shn3 3'UTR-driven luciferase in osteoblasts – cell-based, Clone20 osteoblasts, firefly luciferase, cherry-picked, dose response (AID 624132); format: functional;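 further: firefly luciferase luminescence from reporter carrying the Shn3 3'UTR in osteoblasts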
[6] = Trypanosoma cruzi growth suppression in host cells – NIH3T3 host cells, beta-gal luminescence, confirmation (AID 2044); format: functional, cell-based;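 further: intracellular parasites grown in NIH/3T3 mouse fibroblasts as host cells; luminescent beta-galactosidase reporter signal from transgenic T. cruzi replicating inside host cells; inhibitors lower the luminescence signal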
[7] = NIH3T3 cell viability loss – ATP luminescence, mouse fibroblasts, counter-screen, dose response (AID 2010); format: functional, cell-based;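 further: cells exposed to compound for about 90 hours before reading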
Aminopeptidase N = biological target: T2, Aminopeptidase N (Plasmodium falciparum FcB1/Columbia, UniProt O96935); test: malaria alanyl aminopeptidase activity blockers – biochemical, fluorogenic H-Leu-NHMec substrate, 1536-well (AID 1445); parameters: species or system Plasmodium falciparum 3D7, 3D7
T2 sequence (O96935 whole entry): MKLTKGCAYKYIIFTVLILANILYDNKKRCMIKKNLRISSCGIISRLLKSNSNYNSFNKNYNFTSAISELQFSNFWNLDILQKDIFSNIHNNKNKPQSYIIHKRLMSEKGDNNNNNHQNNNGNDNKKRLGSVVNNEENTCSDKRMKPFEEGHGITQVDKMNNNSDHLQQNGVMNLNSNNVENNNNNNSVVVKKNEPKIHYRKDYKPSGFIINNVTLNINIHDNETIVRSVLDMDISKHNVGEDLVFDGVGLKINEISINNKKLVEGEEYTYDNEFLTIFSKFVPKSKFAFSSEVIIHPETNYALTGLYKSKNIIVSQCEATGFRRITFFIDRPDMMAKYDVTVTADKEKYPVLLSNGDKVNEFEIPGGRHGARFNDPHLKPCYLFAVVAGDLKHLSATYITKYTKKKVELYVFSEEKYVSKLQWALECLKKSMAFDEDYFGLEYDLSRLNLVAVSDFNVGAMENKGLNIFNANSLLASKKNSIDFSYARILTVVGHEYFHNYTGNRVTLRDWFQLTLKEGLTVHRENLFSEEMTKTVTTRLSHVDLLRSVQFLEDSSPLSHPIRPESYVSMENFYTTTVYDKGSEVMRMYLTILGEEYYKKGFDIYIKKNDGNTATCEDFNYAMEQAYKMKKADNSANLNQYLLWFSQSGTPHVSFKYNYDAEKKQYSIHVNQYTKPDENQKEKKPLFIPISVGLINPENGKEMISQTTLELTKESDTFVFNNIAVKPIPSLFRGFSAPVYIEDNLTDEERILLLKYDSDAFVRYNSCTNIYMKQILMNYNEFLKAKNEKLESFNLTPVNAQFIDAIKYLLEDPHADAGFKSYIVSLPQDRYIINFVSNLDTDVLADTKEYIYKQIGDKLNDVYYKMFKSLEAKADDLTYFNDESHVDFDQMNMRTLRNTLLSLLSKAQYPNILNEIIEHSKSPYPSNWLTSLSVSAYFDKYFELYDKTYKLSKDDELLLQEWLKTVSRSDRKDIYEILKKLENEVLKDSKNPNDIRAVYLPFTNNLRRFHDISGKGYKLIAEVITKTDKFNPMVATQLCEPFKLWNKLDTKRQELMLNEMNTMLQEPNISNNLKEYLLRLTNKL

[8] = biological target: T3, Histone-lysine N-methyltransferase NSD2 (Homo sapiens, UniProt O96028); format: biochemical
T3 sequence (O96028 whole entry): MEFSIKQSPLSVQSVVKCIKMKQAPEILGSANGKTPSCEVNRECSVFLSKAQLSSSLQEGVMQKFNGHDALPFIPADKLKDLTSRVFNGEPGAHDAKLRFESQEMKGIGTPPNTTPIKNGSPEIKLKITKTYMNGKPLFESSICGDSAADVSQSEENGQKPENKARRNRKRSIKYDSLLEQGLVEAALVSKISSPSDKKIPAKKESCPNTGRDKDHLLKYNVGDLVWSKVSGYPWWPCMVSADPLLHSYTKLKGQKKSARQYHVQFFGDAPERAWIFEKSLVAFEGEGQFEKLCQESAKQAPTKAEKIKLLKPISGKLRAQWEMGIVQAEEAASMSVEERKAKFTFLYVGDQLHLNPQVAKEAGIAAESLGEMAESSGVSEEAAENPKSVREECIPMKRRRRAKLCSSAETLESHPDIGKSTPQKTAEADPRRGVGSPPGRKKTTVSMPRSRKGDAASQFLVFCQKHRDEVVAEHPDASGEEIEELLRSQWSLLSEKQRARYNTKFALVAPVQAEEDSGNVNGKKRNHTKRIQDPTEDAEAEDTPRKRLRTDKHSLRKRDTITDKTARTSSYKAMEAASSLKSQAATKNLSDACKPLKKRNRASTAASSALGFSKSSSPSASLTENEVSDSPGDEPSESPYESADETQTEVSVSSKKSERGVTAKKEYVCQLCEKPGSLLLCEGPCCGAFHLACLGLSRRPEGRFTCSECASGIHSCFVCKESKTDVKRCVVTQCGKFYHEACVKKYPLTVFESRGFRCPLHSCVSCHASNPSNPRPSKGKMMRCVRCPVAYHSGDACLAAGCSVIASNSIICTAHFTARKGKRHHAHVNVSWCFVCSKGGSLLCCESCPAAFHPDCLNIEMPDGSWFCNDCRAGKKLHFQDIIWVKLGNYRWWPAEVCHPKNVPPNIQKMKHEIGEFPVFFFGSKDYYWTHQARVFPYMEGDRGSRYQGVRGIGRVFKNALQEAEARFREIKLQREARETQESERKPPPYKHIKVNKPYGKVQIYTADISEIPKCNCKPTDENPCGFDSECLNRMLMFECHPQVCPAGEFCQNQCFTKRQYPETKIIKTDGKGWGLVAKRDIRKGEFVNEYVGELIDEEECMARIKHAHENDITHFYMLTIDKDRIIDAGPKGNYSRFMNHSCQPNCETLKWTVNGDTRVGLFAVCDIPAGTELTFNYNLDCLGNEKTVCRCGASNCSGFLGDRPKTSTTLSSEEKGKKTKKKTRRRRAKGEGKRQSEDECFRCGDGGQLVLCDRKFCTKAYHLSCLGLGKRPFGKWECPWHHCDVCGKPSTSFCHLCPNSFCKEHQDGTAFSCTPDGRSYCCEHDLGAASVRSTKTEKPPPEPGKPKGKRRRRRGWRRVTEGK

Protein RecA = biological target: T4, Protein RecA (Mycobacterium tuberculosis, UniProt P9WHJ3); test: Fluorescence Cell-Free Homogeneous Dose Retest to Identify Inhibitors of RecA-Intein Splicing Activity. [Related pubchem assays (depositor defined):AID2097, AID2223, AID489010, AID492950]; format: functional
T4 sequence (P9WHJ3 whole entry): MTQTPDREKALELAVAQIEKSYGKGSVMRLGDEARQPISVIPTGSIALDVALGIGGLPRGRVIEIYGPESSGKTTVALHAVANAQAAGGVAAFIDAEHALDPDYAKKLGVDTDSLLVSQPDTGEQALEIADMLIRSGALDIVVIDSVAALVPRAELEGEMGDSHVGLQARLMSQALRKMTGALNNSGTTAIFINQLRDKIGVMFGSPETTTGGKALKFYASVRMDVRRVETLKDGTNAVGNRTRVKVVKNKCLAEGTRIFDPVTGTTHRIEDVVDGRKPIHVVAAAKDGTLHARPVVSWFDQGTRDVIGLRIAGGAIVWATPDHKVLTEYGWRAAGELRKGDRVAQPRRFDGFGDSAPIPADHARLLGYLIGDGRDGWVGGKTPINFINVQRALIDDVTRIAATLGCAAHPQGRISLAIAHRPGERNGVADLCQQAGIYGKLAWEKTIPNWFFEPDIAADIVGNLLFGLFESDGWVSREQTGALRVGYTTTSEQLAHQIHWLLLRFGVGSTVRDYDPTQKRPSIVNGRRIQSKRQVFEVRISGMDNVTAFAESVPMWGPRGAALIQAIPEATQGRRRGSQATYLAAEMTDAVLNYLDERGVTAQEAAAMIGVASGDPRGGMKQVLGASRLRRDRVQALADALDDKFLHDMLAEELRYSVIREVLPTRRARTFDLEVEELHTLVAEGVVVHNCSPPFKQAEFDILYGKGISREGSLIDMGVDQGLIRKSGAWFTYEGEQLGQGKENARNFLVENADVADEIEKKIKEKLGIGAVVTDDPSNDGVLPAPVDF

[9] = biological target: T5, RNA-binding protein pos-1 (Caenorhabditis elegans, UniProt G5EF15); test: disruptors of C. elegans POS-1 RNA interaction – biochemical, fluorescence polarization, dose response (AID 1964);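 further: purified POS-1 fused to maltose binding protein made in E. coli; potency of compounds blocking POS-1 binding to fluorescent RNA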
T5 sequence (G5EF15 whole entry): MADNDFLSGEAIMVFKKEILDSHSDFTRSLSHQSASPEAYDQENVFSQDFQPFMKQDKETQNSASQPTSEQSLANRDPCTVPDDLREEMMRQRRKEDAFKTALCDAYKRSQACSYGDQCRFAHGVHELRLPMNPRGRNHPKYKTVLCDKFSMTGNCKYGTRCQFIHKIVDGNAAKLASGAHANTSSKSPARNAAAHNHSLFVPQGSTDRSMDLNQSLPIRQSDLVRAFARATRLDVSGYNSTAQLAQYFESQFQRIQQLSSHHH

[10] = biological target: T6, Zinc finger protein mex-5 (Caenorhabditis elegans, UniProt Q9XUB2); test: potency of MEX-5 RNA-binding blockers – biochemical, C. elegans, fluorescence polarization, dose response (AID 1960)
T6 sequence (Q9XUB2 whole entry): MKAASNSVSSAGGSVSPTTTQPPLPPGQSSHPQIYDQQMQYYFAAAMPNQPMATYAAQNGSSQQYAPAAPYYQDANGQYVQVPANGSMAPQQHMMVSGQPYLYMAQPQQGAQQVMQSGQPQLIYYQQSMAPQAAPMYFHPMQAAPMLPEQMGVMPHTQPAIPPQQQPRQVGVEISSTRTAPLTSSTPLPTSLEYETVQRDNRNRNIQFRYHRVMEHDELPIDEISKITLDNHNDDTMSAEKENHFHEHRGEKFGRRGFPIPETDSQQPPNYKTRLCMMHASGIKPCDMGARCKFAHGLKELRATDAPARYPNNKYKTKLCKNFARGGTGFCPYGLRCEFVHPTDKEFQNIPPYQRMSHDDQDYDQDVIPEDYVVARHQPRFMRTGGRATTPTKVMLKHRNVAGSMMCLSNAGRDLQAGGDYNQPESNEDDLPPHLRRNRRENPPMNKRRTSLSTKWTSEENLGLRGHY

Sequence of DNA dC->dU-editing enzyme APOBEC-3G (Q9HC16 whole entry): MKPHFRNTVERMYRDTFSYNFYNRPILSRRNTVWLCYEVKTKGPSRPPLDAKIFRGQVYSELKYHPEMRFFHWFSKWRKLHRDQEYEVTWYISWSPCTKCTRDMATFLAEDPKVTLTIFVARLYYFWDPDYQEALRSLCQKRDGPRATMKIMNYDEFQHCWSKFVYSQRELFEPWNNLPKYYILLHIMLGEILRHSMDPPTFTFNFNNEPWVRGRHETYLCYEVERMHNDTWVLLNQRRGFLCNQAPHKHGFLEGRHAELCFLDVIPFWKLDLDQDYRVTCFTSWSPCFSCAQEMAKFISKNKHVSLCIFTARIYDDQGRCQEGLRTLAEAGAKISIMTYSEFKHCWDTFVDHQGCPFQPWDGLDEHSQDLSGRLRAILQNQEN
Sequence of DNA dC->dU-editing enzyme APOBEC-3A (P31941 whole entry): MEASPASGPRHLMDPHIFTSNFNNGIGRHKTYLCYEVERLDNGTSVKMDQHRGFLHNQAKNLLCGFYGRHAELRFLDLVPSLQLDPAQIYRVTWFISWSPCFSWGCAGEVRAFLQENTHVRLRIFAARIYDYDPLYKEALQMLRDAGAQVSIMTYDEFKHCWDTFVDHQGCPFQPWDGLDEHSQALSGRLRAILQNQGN

## COC(=O)C(C)N1C(=O)S/C(=C\c2ccc(-c3ccc(C(=O)O)cc3C)o2)C1=O (centres undefined)
[1]
  IC50: 4.97 µM (active)
[2]
  IC50: 5.66 µM (active)

## O=C(Nc1ccc(F)cc1)Nc1cc(OCC(F)(F)F)cc(OCC(F)(F)F)c1
INS1
  AC50: 2.01 µM (active)
Coagulation factor XII
  IC50: > 50 µM (inactive)
[3]
  AC50: 4.59 µM (active)
[4]
  AC50: 4.1 µM (active)
[5]
  AC50: 2.46 µM (active)

## C=CCNC(=O)CN(c1ccc(F)cc1)S(=O)(=O)c1ccc(OC)cc1
Coagulation factor XII
  IC50: > 50 µM (inactive)

## O=C(Nc1ccc(NC(=O)c2ccc(Cl)cc2Cl)cc1)c1cccs1
[1]
  IC50: 11.8 µM (active)
[2]
  IC50: 10.6 µM (active)

## CCN1CCN(c2ccc(S(=O)(=O)N3CCCCC3)cc2NC(=O)c2cccc(C(F)(F)F)c2)CC1
[1]
  IC50: 13.2 µM (active)
[6]
  EC50: 1.09 µM (active)
[7]
  EC50: > 30 µM (not active)
[2]
  IC50: 7.71 µM (active)

## C=CCn1c(NC(=O)c2ccc(Br)o2)c(S(=O)(=O)c2ccccc2)c2nc3ccccc3nc21
Aminopeptidase N
  IC50: 17.4 µM (active)
[8]
  AC50: 10.6 µM (active)
Protein RecA
  EC50: > 380 µM (inconclusive)

## CCOC(=O)C1CCN(S(=O)(=O)c2ccc3c(c2)CC(=O)N3C)CC1
[1]
  IC50: 4 µM (active)
[2]
  IC50: 2.81 µM (active)

## Nn1c(Cc2cccc3ccccc23)nnc1SCCOc1ccc(F)cc1
Coagulation factor XII
  IC50: > 50 µM (inactive)

## Cc1cc(NC(=O)COC(=O)c2cccc(S(=O)(=O)N(C)C3CCCCC3)c2)no1
Coagulation factor XII
  IC50: > 50 µM (inactive)

## COc1cc2ccccc2cc1C(=O)NC(=S)Nc1cc(C(=O)O)ccc1C
[9]
  EC50: > 300 µM (not active)
Coagulation factor XII
  IC50: > 50 µM (inactive)
[10]
  EC50: > 300 µM (not active)

## CC[n+]1c(C)n(Cc2ccccc2)c2ccc(C(=O)OC)cc21
[1]
  IC50: 3.62 µM (active)
[2]
  IC50: 2.88 µM (active)

## C[n+]1cccc(C(=O)N/N=C/c2ccc3c(c2)OCO3)c1
[1]
  IC50: 8.99 µM (active)
[2]
  IC50: 3.15 µM (active)

## Cc1n[nH]c(C)c1CCC(=O)N/N=C/c1cccs1
Coagulation factor XII
  IC50: > 50 µM (inactive)
